Assays:
[1] = Solubility in water of ether bond-containing compounds; format: physicochemical
Source text: The solubilities in water of the first ether bond-containing compound (propylene glycol monopropyl ether) in Test Example 1, the first ether bond-containing compound (dipropylene glycol monopropyl ether) in Test Example 7, and the ether bond-containing compound of the chemical formula I wherein R^2 has 4 (C4) or more carbon atoms (butylene glycol monobutyl ether) were compared.
The solubilities in water of the first ether bond-containing compound (propylene glycol monopropyl ether) in Test Example 1, the ether bond-containing compound (dipropylene glycol monopropyl ether) in Test Example 7, and the ether bond-containing compound of the chemical formula I wherein R^3 is an alkyl group (propylene glycol dibutyl ether) were compared.

[2] = Boiling point of ether bond-containing compounds; details: Table 5, Test Example 23; under atmospheric pressure

CCCCOCCCCO [Butylene glycol monobutyl ether, butylene glycol monobutyl ether]
Solubility in water (% by weight) ([1]; Table 3, Test Example 21): About 1 % by weight

COCCOC(C)=O [Ethylene glycol monomethyl ether acetate, ethylene glycol monomethyl ether acetate]
Boiling point (° c.) [2]: 143 ° c.

CCCCOCC(C)OCCCC (stereo not drawn) [Propylene glycol dibutyl ether, propylene glycol dibutyl ether]
Solubility in water (% by weight) ([1]; Table 4, Test Example 22): Less than 1 % by weight

— patent US11772041B2, “Composite amine absorbent, and device and method for removing CO2 or H2S, or both of CO2 and H2S” (MITSUBISHI HEAVY INDUSTRIES, LTD., priority 2019, dated 2023)
